Results: article PMC5268383, “Inhibition of STAT3 by Anticancer Drug Bendamustine” (PLoS ONE, 2017)
Entries after “also recorded” stand apart in the source; their conditions may differ. Where two headings read alike, the source gives them in different places.

Columns and labels:
cells = tested on: cells; set-up: method as in PMID 22768280; conditions: cited from earlier work
[1] = target: T1, recombinant human STAT3 SH2 domain (Homo sapiens, UniProt P40763); assay: AlphaScreen SH2 binding assay, STAT3
T1 construct: Full-length cDNAs were obtained from a human cDNA library by PCR; Avi-tag (biotinylated in BirA-BL21) (N); made in house; host or cells: Escherichia coli BirA-BL21
Protocol: (§1) AlphaScreen assays were performed in a final reaction volume of 25 μL of the assay buffer, containing 10 mM HEPES-NaOH (pH 7.4), 50 mM NaCl, 1 mM EDTA (pH 8.0), 0.1% NP-40, and 10 ng/mL BSA in a 96-well microtiter plate at 25°C. The labeled Phospho-Tyr (pTyr) peptide probe was 5-carboxyfluorescein (FITC)-GpYLPQTV for STAT3, FITC-GpYDKPHVL for STAT1, and FITC-PSpYVNVQN for Grb2. A DMSO solution of BENDA was incubated with 50 nM of each SH2-containing protein for 15 min, 50 nM of the corresponding FITC-pTyr peptide was added, and the mixture was incubated for 90 min. Streptavidin-coated donor beads and anti-FITC acceptor beads were added and incubated for 90 min before the signals were measured with an Envision Xcite plate reader (PerkinElmer Life Sciences, Waltham, MA, USA).

[2] = target: T2, STAT3 Cys550 mutant (C550A) (Homo sapiens, UniProt P40763, C550A); assay: SH2 binding AlphaScreen assay with Cys550 mutant recombinant STAT3; conditions: 100 μM BENDA, 375 nM mutant STAT3, 30 min
T2 construct: Full-length cDNAs were obtained from a human cDNA library by PCR; Avi-tag (N); 6His-tag (N); made in house; host or cells: Escherichia coli (pET-28a; host inferred to be the same BirA-BL21 as for wild type)
Protocol: Point mutations were introduced into recombinant human STAT3 (rhSTAT3) by inverse PCR. We mutated Cys468, Cys542, Cys550, Cys687, and Cys712 near the SH2 domain to alanine. Inverse PCR was performed by using pBluescript II KS (+) as a template, KOD-Plus-ver. 2 (Toyobo, Osaka, Japan), and the following oligonucleotide primer set: Cys468 (forward: 5’-TCCAACATCG CTCAGATGCC AAATG-3’, reverse: 5′-GATCACCACA ACTGGCAAGG AGTGG-3′); Cys542 (forward: 5′-GAATTATTCAGGGGCTCAGATCACATGGGCTAAAT-3′, reverse: 5′-ACACCAGGTC CCAAGAGTTT CTCTGCC-3′); Cys550 (forward: 5′-GCTAAATTTG CCAAAGAAAA CATGGCTGGC-3′, reverse: 5′-CCATGTGATC TGACACCCTG AATAATTCA CACC-3′); Cys687 (forward: 5′-GGAAAGTATG CTCGGCCAGA GAGCCAG-3′, reverse: 5′-GAATGCCTCC TCCTTGGGAA TGTCAGG-3′); and Cys712 (forward: 5′-AAGTTTATCG CTGTGACACC AACGACCTGC-3′, reverse: 5′-GGTCTTCAGG TATGGGGCAG CGCTAC-3′). Inverse PCR (1 × PCR buffer, 1.5 mM MgSO4, 15 pmol 5′ primer and 3′ primer, 0.2 mM dNTPs, 50 ng STAT3 cDNA, 1 U KOD Plus) was performed under the following conditions: 2 min at 94°C, (10 s at 98°C, and 6.5 min at 68°C)×7 cycles. The amplified fragment was ligated by using Ligation High ver. 2 (Toyobo). The resultant plasmid was cloned into the HindIII/XhoI sites of modified pET-28a (+). The nucleotides coding for human mutant STAT3 in pET-28a (+) were named mutant STAT3 His-Avi-pET28a (+). […]

STAT1 SH2 = target: T3, STAT1 SH2 (Homo sapiens, UniProt P42224); assay: AlphaScreen SH2 binding assay, STAT1
T3 construct: Avi-tag (N); 6His-tag (N)
Protocol: as §1

T1 sequence (P40763 whole entry, the tested form may be a part): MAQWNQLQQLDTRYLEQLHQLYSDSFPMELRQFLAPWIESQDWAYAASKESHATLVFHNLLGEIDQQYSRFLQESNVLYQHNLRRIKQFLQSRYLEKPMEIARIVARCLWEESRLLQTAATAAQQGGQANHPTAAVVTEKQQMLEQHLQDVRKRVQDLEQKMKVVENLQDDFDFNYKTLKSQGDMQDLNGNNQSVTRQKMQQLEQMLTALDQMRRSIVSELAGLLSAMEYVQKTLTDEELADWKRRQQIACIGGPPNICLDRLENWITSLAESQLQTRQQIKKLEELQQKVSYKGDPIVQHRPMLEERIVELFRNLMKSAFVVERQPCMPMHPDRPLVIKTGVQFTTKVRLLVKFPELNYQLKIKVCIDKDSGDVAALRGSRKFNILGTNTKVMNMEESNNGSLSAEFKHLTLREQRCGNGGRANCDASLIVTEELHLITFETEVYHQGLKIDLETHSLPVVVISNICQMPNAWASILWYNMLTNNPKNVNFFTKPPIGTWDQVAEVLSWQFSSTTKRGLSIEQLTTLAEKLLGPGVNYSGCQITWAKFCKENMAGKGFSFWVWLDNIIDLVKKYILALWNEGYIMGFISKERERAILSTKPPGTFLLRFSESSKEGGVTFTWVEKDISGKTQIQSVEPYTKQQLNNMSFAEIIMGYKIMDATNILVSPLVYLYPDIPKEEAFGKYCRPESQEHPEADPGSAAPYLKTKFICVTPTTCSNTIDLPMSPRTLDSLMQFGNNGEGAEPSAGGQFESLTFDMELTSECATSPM
T3 sequence (P42224 whole entry): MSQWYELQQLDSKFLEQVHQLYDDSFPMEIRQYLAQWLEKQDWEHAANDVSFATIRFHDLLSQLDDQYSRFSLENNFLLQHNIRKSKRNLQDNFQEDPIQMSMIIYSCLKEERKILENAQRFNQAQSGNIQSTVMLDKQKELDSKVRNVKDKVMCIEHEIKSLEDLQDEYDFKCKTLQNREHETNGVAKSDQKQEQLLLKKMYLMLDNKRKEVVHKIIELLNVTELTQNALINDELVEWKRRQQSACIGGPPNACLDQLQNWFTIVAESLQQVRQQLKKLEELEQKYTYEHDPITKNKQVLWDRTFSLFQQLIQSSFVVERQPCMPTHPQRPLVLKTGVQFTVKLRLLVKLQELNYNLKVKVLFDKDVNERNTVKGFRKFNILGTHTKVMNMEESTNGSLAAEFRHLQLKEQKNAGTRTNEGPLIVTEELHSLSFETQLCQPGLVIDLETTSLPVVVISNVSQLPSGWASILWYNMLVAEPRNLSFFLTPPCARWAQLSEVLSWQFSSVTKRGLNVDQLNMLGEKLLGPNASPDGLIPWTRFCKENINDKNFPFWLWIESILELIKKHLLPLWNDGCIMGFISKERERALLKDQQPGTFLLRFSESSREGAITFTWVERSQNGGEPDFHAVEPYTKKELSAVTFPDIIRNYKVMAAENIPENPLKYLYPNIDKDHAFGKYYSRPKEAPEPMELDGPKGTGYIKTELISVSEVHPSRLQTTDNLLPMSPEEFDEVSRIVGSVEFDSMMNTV
T2 sequence (P40763 whole entry C550A): as the sequence (P40763 whole entry, the tested form may be a part) above, with C550A counted along it

Cn1c(CCCC(=O)O)nc2cc(N(CCCl)CCCl)ccc21 [BENDA, 4-{5-[bis(2-chloroethyl)amino]-1-methyl-2-benzimidazolyl} butyric acid]
Cell cycle arrest (cells; 50 μM): transiently arrested cells in G2
Cell cycle arrest (cells; 200 μM): arrested cells in S phase
IC50 [1]: 7.4 µM
SH2 binding inhibition in presence of 2-mercaptoethanol ([1]; 200 μM (0.2 mM) 2-mercaptoethanol, data not shown): did not inhibit; also recorded: wholly inactivated
SH2 inhibitory activity in presence of excess L-cysteine ([1]; 200 μM (0.2 mM) L-cysteine added to assay mixture): attenuated; also recorded: wholly inactivated
inhibition at 100 µM [2]: 3%
IC50 (STAT1 SH2): 60 µM
